Data reported in patent US20220290114A1 (priority 2019, published 2022).
Where two headings read alike, the source gives them in different places.

Experiments:
[1] = tested on: C. perfringens reference strains (NCTC 2837, 8235, 8237, 8238, 8239, 8359, 8678, 10578); type: cell-based, Clostridium perfringens; settings: for effect in spot assay: NCTC 8237, FIG. 4, freshly-plated cells and cell lawns; for effect on C. perfringens growth in spot assay: 10 μg/ml chloramphenicol, 20 μg/ml spectinomycin, 1 mg/mL lysozyme, 1 mg/mL disodium EDTA
[2] = tested on: Clostridium leptum (DSMZ 753); test: Spot assay of clarified lysates on non-Cp species; type: cell-based; parameters: key: The presence of antimicrobial activity is denoted by a ‘+’; the lack of antimicrobial activity is denoted by a ‘−’
[3] = tested on: Bifidobacterium adolescentis (DSMZ 20083); test: Spot assay of clarified lysates on non-Cp species; type: cell-based; parameters: key: The presence of antimicrobial activity is denoted by a ‘+’; the lack of antimicrobial activity is denoted by a ‘−’
[4] = tested on: Clostridium colinum (DSMZ 6011); test: Spot assay of clarified lysates on non-Cp species; type: cell-based; parameters: key: The presence of antimicrobial activity is denoted by a ‘+’; the lack of antimicrobial activity is denoted by a ‘−’
[5] = tested on: Clostridium cellobioparum (DSMZ 1351); test: Spot assay of clarified lysates on non-Cp species; type: cell-based; parameters: key: The presence of antimicrobial activity is denoted by a ‘+’; the lack of antimicrobial activity is denoted by a ‘−’
[6] = tested on: C. perfringens strain Cp6; type: cell-based, Clostridium perfringens
[7] = tested on: C. perfringens reference strains (NCTC 2837, 8237, 8238, 8239); type: cell-based, Clostridium perfringens
[8] = tested on: C. perfringens NCTC reference strains and APHA field isolates; type: cell-based, Clostridium perfringens; parameters: key to bacteriolytic activity, cell lawn: (−) indicates no visible lysis; +/−, +, ++, +++ correspond to increasingly clear lysis halos around the paper disks; +/−, +, ++, +++ correspond to increasingly clear lysis halos around the paper disks; +/−, +, ++, +++ correspond to increasingly clear lysis halos around the paper disks; +/−, +, ++, +++ correspond to increasingly clear lysis halos around the paper disks
C. perfringens Cp6 PGN = type: biochemical, Clostridium perfringens; settings: 54D extract, 3× replicates, fresh PGN stock
[9] = NCTC 2837, FP (freshly-plated cells)

## NC[C@H]1O[C@H](O[C@H]2[C@H](O)[C@@H](O[C@H]3O[C@H](CO)[C@@H](O)[C@H](N)[C@H]3O)[C@H](N)C[C@@H]2N)[C@H](O)[C@@H](O)[C@@H]1O [kanamycin]
[1]
  effect in spot assay: no effect

## CC1(C)S[C@@H]2[C@H](NC(=O)[C@H](N)c3ccccc3)C(=O)N2[C@H]1C(=O)O [Ampicillin]
[2]; DSMZ 753, CL
  antimicrobial activity in spot assay (clearance zone): −
[3]; DSMZ 20083, CL
  antimicrobial activity in spot assay (clearance zone): −
[3]; DSMZ 20083, FP
  antimicrobial activity in spot assay (clearance zone): +
[1]; NCTC 2837, CL (cell lawn)
  antimicrobial activity in spot assay (clearance zone): −
[1]; [9]
  antimicrobial activity in spot assay (clearance zone): +
[1]; NCTC 8235, CL
  antimicrobial activity in spot assay (clearance zone): −
[1]; NCTC 8235, FP
  antimicrobial activity in spot assay (clearance zone): +
[1]; NCTC 8237, CL
  antimicrobial activity in spot assay (clearance zone): −
[1]; NCTC 8237, FP
  antimicrobial activity in spot assay (clearance zone): +
[1]; NCTC 8238, CL
  antimicrobial activity in spot assay (clearance zone): −
[1]; NCTC 8238, FP
  antimicrobial activity in spot assay (clearance zone): +
[1]; NCTC 8239, CL
  antimicrobial activity in spot assay (clearance zone): −
[1]; NCTC 8239, FP
  antimicrobial activity in spot assay (clearance zone): +
[1]; NCTC 8359, CL
  antimicrobial activity in spot assay (clearance zone): −
[1]; NCTC 8359, FP
  antimicrobial activity in spot assay (clearance zone): +
[1]; NCTC 8678, CL
  antimicrobial activity in spot assay (clearance zone): −
[1]; NCTC 8678, FP
  antimicrobial activity in spot assay (clearance zone): +
[1]; NCTC 10578, CL
  antimicrobial activity in spot assay (clearance zone): −
[1]; NCTC 10578, FP
  antimicrobial activity in spot assay (clearance zone): +
[4]; DSMZ 6011, CL
  antimicrobial activity in spot assay (clearance zone): −
[4]; DSMZ 6011, FP
  antimicrobial activity in spot assay (clearance zone): −
[5]; DSMZ 1351, CL
  antimicrobial activity in spot assay (clearance zone): −
[5]; DSMZ 1351, FP
  antimicrobial activity in spot assay (clearance zone): +

## O=C([O-])CN(CCN(CC(=O)[O-])CC(=O)O)CC(=O)O.[Na+].[Na+] [disodium EDTA]
[1]
  effect on C. perfringens growth in spot assay: no effect
[1]; 10 mM EDTA, screening set 2
  effect on freshly-plated cells in spot assay: inhibitory effect

## O=C(N[C@H](CO)[C@H](O)c1ccc([N+](=O)[O-])cc1)C(Cl)Cl [Chloramphenicol]
[1]
  effect on C. perfringens growth in spot assay: no effect
  effect in spot assay: no effect

## Lysozyme: Chicken hen egg white lysozyme, reference enzybiotic
[2]
  antimicrobial activity in spot assay (clearance zone): −
[6]; Cp6, molar basis
  MBC: >174 µM
  MIC: >174 µM
[6]; Cp6, ~2.1E4 cells/mL
  MBC: >2500 mg/L
  lysozyme loading not able to inhibit overnight growth: > 2.5 mg/mL
[6]; Cp6, ~2.1E4 cells/mL, overnight at 41° C.
  MIC: >2500 mg/L
[3]; DSMZ 20083, CL
  antimicrobial activity in spot assay (clearance zone): −
[3]; DSMZ 20083, FP
  antimicrobial activity in spot assay (clearance zone): −
[7]
  bacteriolytic activity in turbidity reduction assay: minimal bacteriolytic activities
[1]
  effect on C. perfringens growth in spot assay: no effect
[1]; NCTC 2837, CL (cell lawn)
  antimicrobial activity in spot assay (clearance zone): −
[1]; [9]
  antimicrobial activity in spot assay (clearance zone): −
[1]; NCTC 8235, CL
  antimicrobial activity in spot assay (clearance zone): −
[1]; NCTC 8235, FP
  antimicrobial activity in spot assay (clearance zone): −
[1]; NCTC 8237, CL
  antimicrobial activity in spot assay (clearance zone): −
[1]; NCTC 8237, FP
  antimicrobial activity in spot assay (clearance zone): −
[1]; NCTC 8238, CL
  antimicrobial activity in spot assay (clearance zone): −
[1]; NCTC 8238, FP
  antimicrobial activity in spot assay (clearance zone): −
[1]; NCTC 8239, CL
  antimicrobial activity in spot assay (clearance zone): −
[1]; NCTC 8239, FP
  antimicrobial activity in spot assay (clearance zone): −
[1]; NCTC 8359, CL
  antimicrobial activity in spot assay (clearance zone): −
[1]; NCTC 8359, FP
  antimicrobial activity in spot assay (clearance zone): +
[1]; NCTC 8678, CL
  antimicrobial activity in spot assay (clearance zone): −
[1]; NCTC 8678, FP
  antimicrobial activity in spot assay (clearance zone): −
[1]; NCTC 10578, CL
  antimicrobial activity in spot assay (clearance zone): −
[1]; NCTC 10578, FP
  antimicrobial activity in spot assay (clearance zone): −
[4]
  antimicrobial activity in spot assay (clearance zone): −
[5]
  antimicrobial activity in spot assay (clearance zone): −
[8]; APHA B00907, 50 μg/ml
  bacteriolytic activity, cell lawn: −
  growth inhibition, freshly plated cells: −
[8]; APHA B00917, 50 μg/ml
  bacteriolytic activity, cell lawn: −
  growth inhibition, freshly plated cells: −
[8]; APHA B00954, 50 μg/ml
  bacteriolytic activity, cell lawn: −
  growth inhibition, freshly plated cells: −
[8]; APHA B00964, 50 μg/ml
  bacteriolytic activity, cell lawn: −
  growth inhibition, freshly plated cells: −
[8]; APHA B00976, 50 μg/ml
  bacteriolytic activity, cell lawn: −
  growth inhibition, freshly plated cells: −
[8]; APHA G00033, 50 μg/ml
  bacteriolytic activity, cell lawn: −
  growth inhibition, freshly plated cells: −
[8]; APHA W100102, 50 μg/ml
  bacteriolytic activity, cell lawn: −
  growth inhibition, freshly plated cells: −
[8]; NCTC 2837, 50 μg/ml
  bacteriolytic activity, cell lawn: −
  growth inhibition, freshly plated cells: −
[8]; NCTC 8237, 50 μg/ml
  bacteriolytic activity, cell lawn: −
  growth inhibition, freshly plated cells: −
[8]; NCTC 8238, 50 μg/ml
  bacteriolytic activity, cell lawn: −
  growth inhibition, freshly plated cells: −
[8]; NCTC 8239, 50 μg/ml
  bacteriolytic activity, cell lawn: −
  growth inhibition, freshly plated cells: −

## CN[C@@H]1[C@H](O)[C@H](NC)[C@H]2O[C@@]3(O)C(=O)C[C@@H](C)O[C@H]3O[C@@H]2[C@H]1O [spectinomycin]
[1]
  effect on C. perfringens growth in spot assay: no effect
  effect in spot assay: no effect

B1: AMI3CPF4969: endolysin sequence, SEQ ID NO: 11 (protein)
chain: QSRSDSNFKGIDISNWQKGINLNQLKERGYDVCYIKITEGKGYVDPCFEENYNKAIAAGMKVGVYHYWRGTSSAIEQANNIVRTLGNKHIDCKIAIDVEQTDGLSYGELNNSVLQLAEELERLIGAEVCIYCNTNYARNVLDSRLGKYSLWVAHYGVNKPGDNPIWDKWAGFQYSENGTSNVNGSLDLDEFTEEIFINKESSKVTENKLFSTNARALVALDPRDNPSDNYNDLGEIYEGERIQVLAEVCDKEDYLPVKYWKDSEGRESGKVWIRSKQDYMMIDTYHRVFNVITQLDARYEPSSDSATMGYVKNGERLYVHRTEGNYSLCTYFAGNGYKTAWFTAKYLER
modifications: AMI3CPF4969
C. perfringens Cp6 PGN
  fold enhancement of PGN degradation activity in 54D algal extract vs PBS, pH 7.0: ≤ 44 fold
